# Assay results taken from paper PMC3103786 (Journal of medicinal chemistry, 2009).
# Tested on: nNOS
# Test: In vitro NOS inhibition, hemoglobin capture assay
# Format: biochemical
# Details: ratio of Ki values, eNOS over nNOS
row,Structure (SMILES),eNOS/nNOS
1,"Cc1cc(N)nc(CC2CNCC2NCCNCc2cccc(Cl)c2)c1 (racemic) [compound 7, (±)-N^1-{trans-4'-[(6“-amino-4”-methylpyridin-2”-yl)methyl]pyrrolidin-3'-yl}-N^2-(3'-chlorobenzyl)ethane-1,2-diamine]",381
2,"Cc1cc(N)nc(CC2CNCC2NCCNCc2ccc(Cl)cc2)c1 (racemic) [compound 6, (±)-N^1-{cis-4'-[(6“-amino-4”-methylpyridin-2“-yl)methyl]pyrrolidin-3'-yl}-N^2-(4'-chlorobenzyl)ethane-1,2-diamine]",1002
3,"Nc1cccc(CC2CNCC2NCCCO)n1 (racemic) [compound 4, (±)-3-{cis-4'-[(6“-aminopyridin-2”-yl)methyl]pyrrolidin-3'-ylamino}propan-1-ol]",39
